Test results: patent US12546785B2, “IL-17F and IL-17A-specific capture agents, compositions, and methods of using and making” (Regeneron Pharmaceuticals, Inc., priority 2017, dated 2026)
Numbered stars: 1 amine (or outer) side, 2 acyl side, 3 side chain; on linkers, the order of the positions; unused ones are H or OH. Bridge positions count the residues as written; N and C are the ends. Square brackets hold non-standard residues; d marks the D form. Triazole bridges read from a SMILES are 1,4-linked. Peptide text beside a SMILES is read from it. * marks the point of attachment. ξ: configuration not given here. Biotinyl(3aR,4R,6aS) = O=C1N[C@@H]2[C@@H](CS[C@@H]2CCCCC(=O)*)N1; X1 = O=C(CCCCC1SC[C@H]2NC(=O)N[C@@H]12)NCCCOCCOCCOCCCN*; Biotin = O=C1N[C@H]2[C@H](CS[C@H]2CCCCC(=O)*)N1; dLys(N3) = [N-]=[N+]=NCCCC[C@@H](N)C(=O)O; Lys(N3) = [N-]=[N+]=NCCCC[C@H](N)C(=O)O; Ethylenediamine = C(CN[*:2])N[*:1]; PEG5 = NCCOCCOCCOCCOCCOCCC(=O)O; Thr(3ξ) = CC(O)[C@H](N)C(=O)O; ξY = NC(Cc1ccc(O)cc1)C(=O)O; AEEEA = NCCOCCOCCOCC(=O)O; ξR = N=C(N)NCCCC(N)C(=O)O; Pra = C#CC[C@H](N)C(=O)O; ξPra = C#CCC(N)C(=O)O; ξK = NCCCCC(N)C(=O)O; PEG1 = NCCOCCC(=O)O

Experiments:
[1] = target: Plasmodium falciparum Histidine Rich Protein-2 (Pf.HRP-2) (Plasmodium falciparum, UniProt P05227); assay: biochemical; type: binding
[2] = target: T1, recombinant human IL-17A protein (Homo sapiens, UniProt Q16552); assay: ELISA affinity against IL-17A; type: binding
T1 construct: His tag
T1 sequence (Q16552 24-155): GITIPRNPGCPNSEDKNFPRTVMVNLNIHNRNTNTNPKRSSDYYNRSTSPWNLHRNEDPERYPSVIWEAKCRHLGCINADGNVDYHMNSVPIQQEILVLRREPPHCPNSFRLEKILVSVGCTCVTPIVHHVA
Description: The affinity of macrocycle LA3 (SEQ ID NO:44) against recombinant human IL-17A protein was determined by ELISA.

IL-17F protein [3] = target: T2, IL-17F protein (Homo sapiens, UniProt Q96PD4); assay: Fluorescence polarization titration in solution; type: binding
T2 construct: His tag
T2 sequence (Q96PD4 31-163): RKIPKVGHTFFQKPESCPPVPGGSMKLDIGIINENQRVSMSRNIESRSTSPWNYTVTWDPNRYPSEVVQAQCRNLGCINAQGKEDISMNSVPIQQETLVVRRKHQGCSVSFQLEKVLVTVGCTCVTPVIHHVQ
Description: The bonding affinities of the macrocycles were tested in solution by titrating the recombinant human IL-17F protein against fluorescein 5-isothiocyanate (5-FITC)-tagged macrocycles by fluorescence polarization. […] The structure of LA3 (SEQ ID NO:44), the lead macrocycle developed against IL-17A Epitope3, is shown below (X=PEG3-biotin). MALDI-TOF MS (m/z): calcd. for C62H98N22O13S (M+H) 1391.74; found 1392.36.

[4] = target: T3, His-tagged IL-17F Epitope1 (C48S) (Homo sapiens, UniProt Q96PD4); assay: Assay to determine orientation of macrocycle binding to IL-17F Epitope1 (point ELISA with His-tagged epitopes); conditions: epitope 2 μM, unscrambled
T3 construct: made in house; host or cells: chemical peptide synthesis
Description: (§1) Assay to determine orientation of macrocycle binding to IL-17F Epitope1. A black 96-well NeutrAvidin Coated High Binding Capacity plate (15510, Pierce) was coated with 2 μM macrocyclic peptide ligand in TBS (pH 7.6) for 2 h at room temperature. Biotinylated monoclonal anti-IL17F (TA319597, Origene) was coated at 4 μg/mL in TBS as a control. The plate was aspirated and then washed with TBS (5×) and Wash Buffer (0.05% (v/v) Tween-20 in PBS, 1×). Chemically synthesized His-tagged IL-17F epitopes were prepared at 2 μM in Wash Buffer and incubated in the designated microwells for 90 min at room temperature. Wash Buffer without epitope was added as a control. Microwells were aspirated and subsequently washed with Wash Buffer (10×). To detect the bound IL-17F epitopes, Alkaline Phosphatase (AP)-conjugated Anti-6X His tag® antibody [HIS-1] (ab49746, Abcam) was prepared at 1:10,000 dilution and added to the microwells for 1 h at room temperature. The plate was aspirated and washed with Wash Buffer (11×). AttoPhos® AP Fluorescent Substrate System (S1000, Promega) was employed to develop the microwells. Using an excitation wavelength of 430 nm, fluorescent emission at 535 nm was recorded by Beckman Coulter DTX880 photometer. Data are shown after subtraction of the no-epitope background.
(§2) For this experiment, the IL-17F Epitope1 was re-synthesized with a His6 assay handle and C48S substitution instead of a click handle. Two additional His-tagged IL-17F epitopes were synthesized to contain strategic scrambling of the sequences either N-terminal or C-terminal to C48S (scrambled residues are shown in italics): • 1) His6-PEG3-[…] (SEQ ID NO:39); • 2) His6-PEG3-[…] (scrambled C-terminal to click handle; SEQ ID NO:40); • 3) His6-PEG3-[…] (scrambled N-terminal to click handle; SEQ ID NO:41).
(§3) In anticipation of forming a biligand with LF2 (SEQ ID NO: 28), it was important to gain insight on whether LF1 (SEQ ID NO:9) preferentially binds to the N- or C-terminus of Epitope1. Therefore, two His-tagged IL-17F epitopes were generated, scrambling the sequence either N-terminal or C-terminal to the location of the azide click handle. His6 assay handle and C48S substitution instead of a click handle. The scrambled amino acids are shown in italics. MALDI-TOF MS (m/z): calculated for C116H163N37O31 (M+H) 2571.23; found 2571.57.

[5] = test system: His-tagged IL-17F Epitope1 (C48S); assay: as above
Description: as §1, §2, §3

IL-17F protein [6] = target: T2, IL-17F protein; assay: IL-17F binding in a background of human serum, surface-immobilized ligand; conditions: up to 10% (v/v) serum
Source text: Binding to IL-17F in 25% (v/v) serum is also detectable.
Target binding in biologically complex samples was interrogated by contacting surface-immobilized macrocycles with IL-17F protein in a background of human serum.

For `CC(C)C[C@@H]1NC(=O)[C@H](CC(=O)O)NC(=O)[C@H](C(C)C)NC(=O)[C@H](CC(N)=O)NC(=O)[C@H](Cc2c[nH]c3ccccc23)NC(=O)CNC(=O)[C@](C)(NC(=O)[C@@H](N)CCCNC(=N)N)CCCCCC/C=C/CCC[C@@](C)(C(=O)N[C@@H](CCCCNC(=O)CCCC[C@@H]2SC[C@@H]3NC(=O)N[C@@H]32)C(=O)N[C@@H](CNC(=O)Cn2nncc2C[C@H](N)C(=O)N2CCC[C@@H]2C(=O)NCC(=O)N[C@H](CC(C)C)C(=O)N[C@H](CC(C)C)C(=O)N[C@H]2Cc3cn(nn3)CCCC[C@@H](C(N)=O)NC(=O)[C@H](CCCNC(=N)N)NC(=O)[C@H](Cc3ccc(O)cc3)NC(=O)[C@H](Cc3ccc(O)cc3)NC(=O)[C@H](CCCCN)NC(=O)[C@H](Cc3ccc(O)cc3)NC2=O)C(N)=O)NC1=O` [cy(YKYYR)-linker-cy(GWNVDL)], the “improvement over the better of the two ligand components” value ([1]; Pf.HRP-2) was 100 fold.
In the case of `N=C(N)NCCCC1NC(=O)[C@@H](Cc2ccc(O)cc2)NC(=O)[C@@H](Cc2ccc(O)cc2)NC(=O)C(CCCCN)NC(=O)C(Cc2ccc(O)cc2)NC(=O)C(N)Cc2cn(nn2)CCCC[C@H](C(=O)NCCOCCC(=O)NC2Cc3cn(nn3)CCCC[C@H](C(=O)NCCOCCOCCOCCOCCOCCC(=O)NCCNC(=O)CCCC[C@H]3SC[C@H]4NC(=O)N[C@H]43)NC(=O)C(CCCNC(=N)N)NC(=O)[C@@H](Cc3ccc(O)cc3)NC(=O)[C@@H](Cc3ccc(O)cc3)NC(=O)C(CCCCN)NC(=O)C(Cc3ccc(O)cc3)NC2=O)NC1=O` (stereo partly drawn) [linked biligand] (H-[ξPra][ξY][ξK][dY][dY][ξR][dLys(N3)][PEG1][ξPra][ξY][ξK][dY][dY][ξR][dLys(N3)][PEG5]-{Ethylenediamine-Biotinyl(3aR,4R,6aS)}; triazole 1-7, 9-15), the EC50 [1] is reported as 0.0208 ± 0.0013 µM.
In the case of `CC(C)C[C@H]1NC(=O)[C@@H](CCCNC(=N)N)NC(=O)[C@@H](Cc2ccccc2)NC(=O)[C@@H](Cc2c[nH]cn2)NC(=O)[C@@H](CCCNC(=N)N)NC(=O)[C@@H](NC(=O)COCCOCCOCCNC(=O)CCCC[C@@H]2SC[C@@H]3NC(=O)N[C@@H]32)Cc2cn(nn2)CCCC[C@@H](C(N)=O)NC1=O` [LA3] ({Biotin-AEEEA}-[Pra][dR][dH][dF][dR][dL][Lys(N3)]-NH2; triazole 1-7), the EC50 [2] is reported as 0.0045 ± 0.0004 µM.
For `CC(O)[C@@H]1NC(=O)[C@H](C)NC(=O)[C@H](CCCNC(=N)N)NC(=O)[C@H](CCCNC(=N)N)NC(=O)[C@@H](N)Cc2cn(nn2)CCCC[C@@H](C(=O)NCCCOCCOCCOCCCNC(=O)CCCCC2SC[C@H]3NC(=O)N[C@@H]23)NC(=O)[C@H](CO)NC1=O` (stereo partly shown) [Cy(RRATSX1X2), Cy(RRATSX1X2)-PEG3-biotin] (H-[Pra]RRA[Thr(3ξ)]S[Lys(N3)]-X1; triazole 1-7), the Kd (IL-17F protein [3]; 5-FITC-tagged macrocycles, in solution) was 0.05 ± 0.015 µM, the “standard Gibbs free energy change (ΔG°=RTlnKD) of binding to IL-17F” value (IL-17F protein [3]; 25° C.) was -41.4 kJ/mol and the “ELISA signal for His-tagged IL-17F Epitope1 (C48S)” value [4] was “positive ELISA signals”. The “ELISA signal for epitope scrambled C-terminal to click handle” value ([5]; epitope 2 μM) was “positive ELISA signals”, the “binding to epitope scrambled N-terminal to click handle” value ([5]; epitope 2 μM) was “Binding was destroyed” and the “preferred binding region within IL-17F Epitope1” value ([5]; scrambled N- or C-terminus peptides) was “preferentially bind to the N-terminal portion of Epitope1”. The “IL-17F binding efficiency in human serum” value (IL-17F protein [6]) was “no reduction in IL-17F binding efficiency”.
